From patent US20110081293A1, “METHODS AND COMPOSITIONS RELATED TO CLOT-BINDING LIPID COMPOUNDS” (SANFORD-BURNHAM MEDICAL RESEARCH INSTITUTE, priority 2009, published 2011)
No end group written: not given here. fluorescent dye = not defined here

How the values were obtained:
MDA-MB-435 tumor = experiment: Whole animal imaging of Alexa Fluor 647-labeled CREKA; type: in vivo, mouse; conditions: peptide labeled with Alexa 647
Method: (A). Balb/c nude mice bearing MDA-MB-435 human breast cancer xenograft tumors or transgenic MMTV PyMT mice with breast tumors were intravenously injected with 0.1 mg of fluorescein-CREKA. The animals were sacrificed by perfusion 24 hours post-injection and tissue sections were examined by fluorescent microscopy. Right panel, control organs of MDA-MB 435 tumor mice. Magnification 200×. (B). Whole animal imaging of MDA-MB-435 tumor mouse injected 6 hours earlier with 30 μg of Alexa Fluor 647-labeled CREKA. Maestro imaging system (Cambridge Research Inc., Woburn, Mass.) was used to acquire and process the image. The arrow points to the tumor and the arrowhead to the urinary bladder.

PyMT tumors = experiment: Tumor homing of intravenously injected fluorescent CREKA peptide; type: in vivo, mice; conditions: minutes to hours after the injection
Method: (§1) Phage screening, tumors and peptides. In vivo screening of a peptide library with the general structure of CX7C (SEQ ID NO: 4), where C is cysteine and X is any amino acid, was carried out as described (Oh 2004) using 65- to 75-day-old transgenic MMTV PyMT mice (Hutchinson 2000). These mice express the polyoma virus middle T antigen (MT) under the transcriptional control of the mouse mammary tumor virus (MMTV), leading to the induction of multi-focal mammary tumors in 100% of carriers. MDA-MB-435 tumors in nude mice and peptide synthesis have been described (Laakkonen 2002; Laakkonen 2004). B16F1 murine melanoma tumors were grown in fibrinogen null mice (Suh 1995) and their normal littermates and used when they reached 0.5-1 cm in size (Pilch 2006).

[1] = tested on: MDA-MB-435 human breast cancer xenografts; experiment: as above; type: in vivo, mice
Method: as §1

B16F1 melanomas = experiment: CREKA peptide homing in fibrinogen null mice and normal littermates; type: in vivo
Method: as §1

“cys-arg-glu-lys-ala ({fluorescent dye}-CREKA; reading uncertain; also: dye identity not given here) [CREKA peptide]” was tested, and the “whole body imaging, peptide accumulation” value (MDA-MB-435 tumor) was “peptide accumulation in the breast cancer xenografts, and in the bladder”, the “detection of intravenously injected peptide in tumors” value (PyMT tumors) was “readily detectable” and the “detection of intravenously injected peptide in tumors” value ([1]; MDA-MB-435 xenografts, minutes to hours after the injection) was “readily detectable”. The “detection of peptide in normal tissues” value ([1]; normal tissues) was “essentially undetectable”, the “accumulation in B16F1 melanomas” value (B16F1 melanomas; fibrinogen null mice) was “failed to accumulate” and the “accumulation in B16F1 tumors” value (B16F1 melanomas; normal littermates of the null mice) was “formed a brightly fluorescent meshwork”.
